Data reported in US20260077018A1, “TREATMENT OF MILD TRAUMATIC BRAIN INJURY” (OXEIA BIOPHARMACEUTICALS, INC., priority 2022, published 2026).
No end group written: not given here. *: point of attachment. Octanoyl = CCCCCCCC(=O)*

System: persistently symptomatic concussion patients
Assay: Phase 2 study of OXE-103 in persistently symptomatic concussion: PCSS symptom scoring
Type: in vivo, human
Conditions: for PCSS symptom balance_problems / PCSS symptom difficulty_concentrating / PCSS symptom difficulty_remembering / PCSS symptom dizziness / PCSS symptom drowsiness / PCSS symptom fatigue / PCSS symptom feeling_in_a_fog / PCSS symptom feeling_more_emotional / PCSS symptom feeling_slowed_down / PCSS symptom headache / PCSS symptom irritability / PCSS symptom nausea / PCSS symptom neck_pain / PCSS symptom nervous_anxious / PCSS symptom numbness_or_tingling / PCSS symptom sadness / PCSS symptom sensitivity_to_light / PCSS symptom sensitivity_to_noise / PCSS symptom sleeping_less_than_usual / PCSS symptom sleeping_more_than_usual / PCSS symptom trouble_falling_asleep / PCSS symptom visual_problems / PCSS symptom vomiting: OXE-103 Treated, aggregated; for 20% Responders - PCSS: Number of Responders / 20% Responders - PCSS: Responder % / 30% Responders - PCSS: Number of Responders / 30% Responders - PCSS: Responder %: Treated, 13 subjects
Text: Describe the change in symptom burden in sub-acute concussion for the two groups. A maximum of 50 subjects are enrolled, but recruiting stops if each arm has 20 participants, diagnosed with persistent concussion symptoms 28 days post injury who complete the study. Patients are randomized 1:1 to placebo versus OXE-103. The Post-Concussion Symptom Score questionnaire (PCSS) is used as an overall measure of symptom burden. The number of symptoms and severity at each time point are also measures of interest. In addition, subjects are asked to identify and rank the 4 most bothersome symptoms. Without being bound by theory, it is hypothesized that changes in these most bothersome symptoms have a higher correlation to improvement in quality of life. A visual comparison of change in the two groups is made. A change of 20% is considered to be clinically meaningful. This primary aim describes the change in symptoms between day 1 and day 14.
Described herein is a randomized, double-blind, placebo-controlled design where 40 subjects will be randomized to either a placebo cohort or a treatment with OXE-103 cohort. We randomize using the RedCap database. The database is set up to share randomization allocation only with the investigational pharmacy. All subjects are consented and begin the screening period within 28 days post-injury. There is a 7-day screening period prior to randomization and commencement of study treatment to allow for assessment of stability of symptom burden. This screening period must start no later than 28 days post-injury. Starting with Day 1 (end of screening period), the treatment cohort receives OXE-103 40ug/kg SC twice daily by self-injection and the placebo group receives a placebo injection SC twice daily. Study drug and placebo are maintained and dispensed by Investigational Pharmacy. Subjects receive an 8-day supply of syringes pre-loaded with OXE-103 or placebo. Each cohort receives the 2nd set of syringes with OXE-103 or placebo at the day 7 visit. No therapies other than OXE-103 are administered during the 14-day treatment period to either cohort. After completion of 14 days of either placebo or OXE-103 treatment, starting with the Day 14 visit, other medications and therapies can be initiated for either cohort as needed.
Symptom reduction (AIM 1): Our primary goal is to describe the change in number of symptoms and/or severity in sub-acute concussion with treatment with OXE-103 using the PCSS at days 1 and 15. We will also collect data at days 21 and 44 to potentially describe long term changes and potential lasting effect (AIM 4).
Subjects complete the PCSS at the following timepoints[17]: upon signing consent (score must 20) (day −7), mid-way through the screening period (day −3), prior to assignment of a treatment cohort (score must 20) (day 1), as well as days 4, 8, 11, 15, 21 and 44. Subjects are instructed to record their symptoms at the same time of day for each assessment timepoint. There can be a two-hour window either way. (e.g. 12 PM+/−2 hrs.) The PCSS is recorded via a RedCap survey. The PCSS is a self-reported assessment of 22 symptoms using a Likert-type scale ranging from 0-6, with 0 indicating no difficulty with the outlined symptom and ratings of 1-6 representing mild-to-severe difficulty with the symptom. The reliability and validity of the PCSS are well documented We also ask subjects to rank their 4 most burdensome symptoms (4MBS) at Day 1 and we analyze these separately. As stated in the Specific Aims the purpose of this study is to collect data that would further refine clinical endpoints that could be used for larger Phase 2 studies and possibly lead to the establishment of pivotal endpoints for Phase 3 registration trials. The 22 symptom PCSS assessment is designed to cover the full spectrum of concussion related symptoms across cognitive, emotional and somatic domains. In that regard the PCSS is particularly useful for diagnosis and monitoring recovery of patients post injury. […]

## ghrelin (GSS(Octanoyl)FLSPEHQRVQQRKESKKPPAKLQPR; UniProt Q9UBU3 24-51, looked up) [OXE-103, naturally occurring peptide comprising 28 amino acids that include an N-octanoyl group at the 3-position of serine]
Day 1
  PCSS symptom balance_problems: 30
  PCSS symptom difficulty_concentrating: 46
  PCSS symptom difficulty_remembering: 48
  PCSS symptom dizziness: 37
  PCSS symptom drowsiness: 38
  PCSS symptom fatigue: 43
  PCSS symptom feeling_in_a_fog: 46
  PCSS symptom feeling_more_emotional: 31
  PCSS symptom feeling_slowed_down: 46
  PCSS symptom headache: 37
  PCSS symptom irritability: 35
  PCSS symptom nausea: 18
  PCSS symptom neck_pain: 38
  PCSS symptom nervous_anxious: 35
  PCSS symptom numbness_or_tingling: 16
  PCSS symptom sadness: 28
  PCSS symptom sensitivity_to_light: 35
  PCSS symptom sensitivity_to_noise: 36
  PCSS symptom sleeping_less_than_usual: 15
  PCSS symptom sleeping_more_than_usual: 24
  PCSS symptom trouble_falling_asleep: 37
  PCSS symptom visual_problems: 30
  PCSS symptom vomiting: 2
  20% Responders - PCSS: Number of Responders: 0
  20% Responders - PCSS: Responder %: 0%
  30% Responders - PCSS: Number of Responders: 0
  30% Responders - PCSS: Responder %: 0%
Day 4
  PCSS symptom balance_problems: 25
  PCSS symptom difficulty_concentrating: 37
  PCSS symptom difficulty_remembering: 35
  PCSS symptom dizziness: 35
  PCSS symptom drowsiness: 39
  PCSS symptom fatigue: 44
  PCSS symptom feeling_in_a_fog: 30
  PCSS symptom feeling_more_emotional: 24
  PCSS symptom feeling_slowed_down: 33
  PCSS symptom headache: 29
  PCSS symptom irritability: 30
  PCSS symptom nausea: 11
  PCSS symptom neck_pain: 29
  PCSS symptom nervous_anxious: 25
  PCSS symptom numbness_or_tingling: 6
  PCSS symptom sadness: 17
  PCSS symptom sensitivity_to_light: 25
  PCSS symptom sensitivity_to_noise: 26
  PCSS symptom sleeping_less_than_usual: 23
  PCSS symptom sleeping_more_than_usual: 32
  PCSS symptom trouble_falling_asleep: 32
  PCSS symptom visual_problems: 18
  PCSS symptom vomiting: 1
  20% Responders - PCSS: Number of Responders: 4
  20% Responders - PCSS: Responder %: 31%
  30% Responders - PCSS: Number of Responders: 3
  30% Responders - PCSS: Responder %: 23%
Day 8
  PCSS symptom balance_problems: 30
  PCSS symptom difficulty_concentrating: 41
  PCSS symptom difficulty_remembering: 35
  PCSS symptom dizziness: 28
  PCSS symptom drowsiness: 41
  PCSS symptom fatigue: 45
  PCSS symptom feeling_in_a_fog: 34
  PCSS symptom feeling_more_emotional: 33
  PCSS symptom feeling_slowed_down: 36
  PCSS symptom headache: 34
  PCSS symptom irritability: 36
  PCSS symptom nausea: 15
  PCSS symptom neck_pain: 26
  PCSS symptom nervous_anxious: 34
  PCSS symptom numbness_or_tingling: 12
  PCSS symptom sadness: 32
  PCSS symptom sensitivity_to_light: 20
  PCSS symptom sensitivity_to_noise: 23
  PCSS symptom sleeping_less_than_usual: 32
  PCSS symptom sleeping_more_than_usual: 20
  PCSS symptom trouble_falling_asleep: 32
  PCSS symptom visual_problems: 23
  PCSS symptom vomiting: 1
  20% Responders - PCSS: Number of Responders: 3
  20% Responders - PCSS: Responder %: 23%
  30% Responders - PCSS: Number of Responders: 2
  30% Responders - PCSS: Responder %: 15%
Day 11
  PCSS symptom balance_problems: 24
  PCSS symptom difficulty_concentrating: 23
  PCSS symptom difficulty_remembering: 28
  PCSS symptom dizziness: 18
  PCSS symptom drowsiness: 33
  PCSS symptom fatigue: 36
  PCSS symptom feeling_in_a_fog: 23
  PCSS symptom feeling_more_emotional: 20
  PCSS symptom feeling_slowed_down: 27
  PCSS symptom headache: 21
  PCSS symptom irritability: 28
  PCSS symptom nausea: 10
  PCSS symptom neck_pain: 18
  PCSS symptom nervous_anxious: 19
  PCSS symptom numbness_or_tingling: 5
  PCSS symptom sadness: 22
  PCSS symptom sensitivity_to_light: 18
  PCSS symptom sensitivity_to_noise: 19
  PCSS symptom sleeping_less_than_usual: 15
  PCSS symptom sleeping_more_than_usual: 19
  PCSS symptom trouble_falling_asleep: 21
  PCSS symptom visual_problems: 12
  PCSS symptom vomiting: 1
  20% Responders - PCSS: Number of Responders: 9
  20% Responders - PCSS: Responder %: 69%
